The text below walks through data of patent US10323038B2, “Pyrazole compounds and methods of making and using same” (ABIDE THERAPEUTICS, INC., priority 2015, dated 2019).

The structures appear in SMILES notation. pIC50: −log10 of the molar value.

In one assay the target is FAAH (Mus musculus (Mouse), UniProt O08914). Nature of the assay: In vitro competitive activity-based protein profiling, FAAH (mouse). The assay is classed as biochemical. The settings on record: for inhibition at 1 µM: read-out: FAAH % inh. 1 μM (mouse). In a few lines:
(§1)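 Residual MAGL and FAAH activity came from in-gel fluorescence after competition between inhibitor (30 min preincubation, 37° C) and the activity-based probe FP-Rh or HT-01 (30 min, 37° C) in mouse or human tissue or cell proteomes.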

For another assay, the target named is MAGL (Mus musculus (Mouse), UniProt O35678). As to the kind of experiment: In vitro competitive activity-based protein profiling, MAGL (mouse). The assay is classed as biochemical. The settings on record: for inhibition at 1 µM: read-out: MAGL % inh. 1 μM (mouse). The gist of the method:
as §1

Chain of FAAH (O08914 whole entry): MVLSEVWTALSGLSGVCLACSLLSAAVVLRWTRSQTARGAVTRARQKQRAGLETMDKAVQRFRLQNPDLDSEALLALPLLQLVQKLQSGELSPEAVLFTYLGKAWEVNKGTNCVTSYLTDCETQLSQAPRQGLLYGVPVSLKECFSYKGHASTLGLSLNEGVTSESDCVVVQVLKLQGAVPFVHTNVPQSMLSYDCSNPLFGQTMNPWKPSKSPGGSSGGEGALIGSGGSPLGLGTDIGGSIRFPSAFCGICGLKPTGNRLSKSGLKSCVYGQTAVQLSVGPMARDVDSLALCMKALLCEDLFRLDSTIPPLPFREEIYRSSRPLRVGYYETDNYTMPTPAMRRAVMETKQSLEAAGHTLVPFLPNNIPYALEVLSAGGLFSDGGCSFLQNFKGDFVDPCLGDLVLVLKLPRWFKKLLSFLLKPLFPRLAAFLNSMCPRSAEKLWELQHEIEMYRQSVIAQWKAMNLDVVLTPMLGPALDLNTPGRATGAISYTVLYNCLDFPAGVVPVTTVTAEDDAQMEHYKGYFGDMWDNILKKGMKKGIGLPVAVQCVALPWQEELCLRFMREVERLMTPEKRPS
Chain of MAGL (O35678 whole entry): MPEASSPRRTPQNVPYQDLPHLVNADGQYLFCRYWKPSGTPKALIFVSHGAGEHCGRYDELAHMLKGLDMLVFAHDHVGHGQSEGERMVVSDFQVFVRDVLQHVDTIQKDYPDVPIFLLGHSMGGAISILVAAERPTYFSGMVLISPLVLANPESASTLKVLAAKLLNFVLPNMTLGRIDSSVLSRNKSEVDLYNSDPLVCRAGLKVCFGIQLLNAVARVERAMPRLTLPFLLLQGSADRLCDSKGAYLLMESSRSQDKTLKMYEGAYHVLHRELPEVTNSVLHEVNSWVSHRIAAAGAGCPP

In general, pIC50 refers to the negative decadic logarithm of the IC50, by convention in mol/L. Read a low pIC50 as a high IC50. For `CC(=O)N(C)c1cnn(C(=O)N2CC3CN(Cc4cccc(Oc5ccccn5)c4)CC3C2)c1` (centres unmarked) [Example 238, N-methyl-N-(1-(5-(3-(pyridin-2-yloxy)benzyl)octahydropyrrolo[3,4-c]pyrrole-2-carbonyl)-1H-pyrazol-4-yl)acetamide], the inhibition at 1 µM on FAAH was at least 75%. Besides, at MAGL, the pIC50 was 6.00 to 7.00 and the inhibition at 1 µM is at least 75%.
`CC(=O)N(C)c1cnn(C(=O)N2CC3CN(Cc4cccc(OCc5ccccc5)c4)CC3C2)c1` (centres unmarked) [Example 239, N-(1-(5-(3-(benzyloxy)benzyl)octahydropyrrolo[3,4-c]pyrrole-2-carbonyl)-1H-pyrazol-4-yl)-N-methylacetamide]: the pIC50 at FAAH and on MAGL was at least 7.00 each time. For the same compound, the inhibition at 1 µM on FAAH and on MAGL was at least 75% in each case.
On to `CC(=O)N(C)c1cnn(C(=O)N2CC3CN(Cc4cccc(Oc5ccccc5Cl)c4)CC3C2)c1` (centres unmarked) [Example 240, N-(1-(5-(3-(2-chlorophenoxy)benzyl)octahydropyrrolo [3,4-c]pyrrole-2-carbonyl)-1H-pyrazol-4-yl)-N-methylacetamide], for which the pIC50 on FAAH and on MAGL was at least 7.00 throughout. The inhibition at 1 µM on FAAH and on MAGL was at least 75% throughout.
For `CC(=O)N(C)c1cnn(C(=O)N2CC3CN(Cc4ccc(Oc5ccccc5)cc4)CC3C2)c1` (centres unmarked) [Example 241, N-methyl-N-(1-(5-(4-phenoxybenzyl)octahydropyrrolo[3,4-c]pyrrole-2-carbonyl)-1H-pyrazol-4-yl)acetamide], the pIC50 at FAAH and at MAGL was at least 7.00 throughout. Also, the inhibition at 1 µM at FAAH and at MAGL was at least 75% throughout.
Consider `CC(=O)N(C)c1cnn(C(=O)N2CC3CN(Cc4ccc5c(c4)OC(F)(F)O5)CC3C2)c1` (centres unmarked) [Example 242, N-(1-(5-((2,2-difluorobenzo[d][1,3]dioxol-5-yl)methyl)octahydropyrrolo[3,4-c]pyrrole-2-carbonyl)-1H-pyrazol-4-yl)-N-methylacetamide], for which, on FAAH, the pIC50 is at least 7.00 and the inhibition at 1 µM was at least 75%. In addition, on MAGL, the pIC50 is at least 7.00 and the inhibition at 1 µM is at least 75%.
Regarding `CC(=O)N(C)c1cnn(C(=O)N2CC3CN(Cc4cccc(Oc5cccc(Cl)c5)c4)CC3C2)c1` (centres unmarked) [Example 244, N-(1-(5-(3-(3-chlorophenoxy)benzyl)octahydropyrrolo [3,4-c]pyrrole-2-carbonyl)-1H-pyrazol-4-yl)-N-methylacetamide], at FAAH, the pIC50 is at least 7.00 and the inhibition at 1 µM was at least 75%. Moreover, on MAGL, the pIC50 is at least 7.00 and the inhibition at 1 µM was at least 75%.
Consider `CC(=O)N(C)c1cnn(C(=O)N2CC3CN(Cc4ccc(Oc5ccc(Cl)cc5)cc4)CC3C2)c1` (centres unmarked) [Example 245, N-(1-(5-(4-(4-chlorophenoxy)benzyl)octahydropyrrolo [3,4-c]pyrrole-2-carbonyl)-1H-pyrazol-4-yl)-N-methylacetamide], for which, at FAAH, the pIC50 was at least 7.00 and the inhibition at 1 µM was at least 75%. At MAGL, the pIC50 was at least 7.00 and the inhibition at 1 µM is at least 75%.
Regarding `CC(=O)N(C)c1cnn(C(=O)N2CC3CN(Cc4cc(F)c(F)cc4F)CC3C2)c1` (centres unmarked) [Example 246, N-methyl-N-(1-(5-(2,4,5-trifluorobenzyl)octahydropyrrolo[3,4-c]pyrrole-2-carbonyl)-1H-pyrazol-4-yl)acetamide], the pIC50 on FAAH was at least 7.00; at MAGL, 6.00 to 7.00. Further, the inhibition at 1 µM at FAAH and on MAGL was at least 75% in each case.
Turning to `CC(=O)N(C)c1cnn(C(=O)N2CC3CN(Cc4cc(Cl)cc(N5CCC6(CCOCC6)C5)c4)CC3C2)c1` (centres unmarked) [Example 247, N-(1-(5-(3-chloro-5-(8-oxa-2-azaspiro[4.5]decan-2-yl)benzyl)octahydropyrrolo[3,4-c]pyrrole-2-carbonyl)-1H-pyrazol-4-yl)-N-methylacetamide], the inhibition at 1 µM on FAAH and on MAGL was at least 75% throughout.
Turning to `CC(=O)N(C)c1cnn(C(=O)N2CC3CN(Cc4ccc(OCc5ccccc5)cc4)CC3C2)c1` (centres unmarked) [Example 248, N-(1-(5-(4-(benzyloxy)benzyl)octahydropyrrolo[3,4-c]pyrrole-2-carbonyl)-1H-pyrazol-4-yl)-N-methylacetamide], at FAAH, the pIC50 is at least 7.00 and the inhibition at 1 µM was at least 75%. In addition, at MAGL, the pIC50 is at least 7.00 and the inhibition at 1 µM is at least 75%.
On to `CC(=O)N(C)c1cnn(C(=O)N2CC3CN(Cc4cccc(OCc5ccc(Cl)cc5)c4)CC3C2)c1` (centres unmarked) [Example 249, N-(1-(5-(3-((4-chlorobenzyl)oxy)benzyl)octahydropyrrolo[3,4-c]pyrrole-2-carbonyl)-1H-pyrazol-4-yl)-N-methylacetamide], for which the inhibition at 1 µM on FAAH and at MAGL was at least 75% in each case.
`CC(=O)N(C)c1cnn(C(=O)N2CC3CN(Cc4ccc(N5C[C@@H]6C[C@H]5CN6C)cc4C(F)(F)F)CC3C2)c1` (stereo partly drawn) [Example 250, N-methyl-N-(1-(5-(4-((1S,4S)-5-methyl-2,5-diazabicyclo[2.2.1]heptan-2-yl)-2-(trifluoromethyl)benzyl)octahydropyrrolo [3,4-c]pyrrole-2-carbonyl)-1H-pyrazol-4-yl)acetamide]: the inhibition at 1 µM at FAAH is 50 to 75%; at MAGL, at least 75%.
In the case of `CC(=O)N(C)c1cnn(C(=O)N2CC3CN(Cc4cc(Cl)cc(OCc5ccccc5)c4)CC3C2)c1` (centres unmarked) [Example 251, N-(1-(5-(3-(benzyloxy)-5-chlorobenzyl)octahydropyrrolo[3,4-c]pyrrole-2-carbonyl)-1H-pyrazol-4-yl)-N-methylacetamide], on FAAH, the pIC50 is at least 7.00 and the inhibition at 1 µM is at least 75%. Also, at MAGL, the pIC50 is at least 7.00 and the inhibition at 1 µM is at least 75%.
In the case of `CC(=O)N(C)c1cnn(C(=O)N2CC3CN(Cc4ccc(Oc5nc6ccccc6s5)cc4Cl)CC3C2)c1` (centres unmarked) [Example 252, N-(1-(5-(4-(benzo[d]thiazol-2-yloxy)-2-chlorobenzyl)octahydropyrrolo[3,4-c]pyrrole-2-carbonyl)-1H-pyrazol-4-yl)-N-methylacetamide], the inhibition at 1 µM on FAAH and at MAGL was at least 75% in each case.
As to `CC(=O)N(C)c1cnn(C(=O)N2CC3CN(Cc4ccc(OC(C)C)cc4Cl)CC3C2)c1` (centres unmarked) [Example 253, N-(1-(5-(2-chloro-4-isopropoxybenzyl)octahydropyrrolo[3,4-c]pyrrole-2-carbonyl)-1H-pyrazol-4-yl)-N-methylacetamide], the inhibition at 1 µM on FAAH and on MAGL was at least 75% throughout.
As to `CC(=O)N(C)c1cnn(C(=O)N2CC3CN(Cc4ccc(Oc5nc6ccccc6s5)cc4C(F)(F)F)CC3C2)c1` (centres unmarked) [Example 254, N-(1-(5-(4-(benzo[d]thiazol-2-yloxy)-2-(trifluoromethyl)benzyl)octahydropyrrolo [3,4-c]pyrrole-2-carbonyl)-1H-pyrazol-4-yl)-N-methylacetamide], the inhibition at 1 µM at FAAH and on MAGL was at least 75% in each case.
Consider `CC(=O)N(C)c1cnn(C(=O)N2CC3CN(Cc4ccc(OC(C)C)cc4C(F)(F)F)CC3C2)c1` (centres unmarked) [Example 255, N-(1-(5-(4-isopropoxy-2-(trifluoromethyl)benzyl)octahydropyrrolo [3,4-c]pyrrole-2-carbonyl)-1H-pyrazol-4-yl)-N-methylacetamide], for which the inhibition at 1 µM on FAAH and at MAGL was at least 75% in each case.
As for `CC(=O)N(C)c1cnn(C(=O)N2CC3CN(Cc4ccc(OCC(=O)N5CCCC5)cc4C(F)(F)F)CC3C2)c1` (centres unmarked) [Example 256, N-methyl-N-(1-(5-(4-(2-oxo-2-(pyrrolidin-1-yl)ethoxy)-2-(trifluoromethyl)benzyl)octahydropyrrolo [3,4-c]pyrrole-2-carbonyl)-1H-pyrazol-4-yl)acetamide], the inhibition at 1 µM at FAAH was at least 75%; on MAGL it was 0 to 25%.
As for `CC(=O)N(C)c1cnn(C(=O)N2CC3CN(Cc4ccc(Oc5ccnnc5)cc4Cl)CC3C2)c1` (centres unmarked) [Example 257, N-(1-(5-(2-chloro-4-(pyridazin-4-yloxy)benzyl)octahydropyrrolo[3,4-c]pyrrole-2-carbonyl)-1H-pyrazol-4-yl)-N-methylacetamide], the inhibition at 1 µM at FAAH was at least 75%; at MAGL it was 50 to 75%.
Regarding `CC(=O)N(C)c1cnn(C(=O)N2CC3CN(Cc4ccc(Oc5ccnnc5)cc4C(F)(F)F)CC3C2)c1` (centres unmarked) [Example 258, N-methyl-N-(1-(5-(4-(pyridazin-4-yloxy)-2-(trifluoromethyl)benzyl)octahydropyrrolo [3,4-c]pyrrole-2-carbonyl)-1H-pyrazol-4-yl)acetamide], the inhibition at 1 µM on FAAH and at MAGL was at least 75% in each case.
Consider `CC(=O)N(C)c1cnn(C(=O)N2CC3CN(Cc4ccc(-c5cncnc5)cc4Cl)CC3C2)c1` (centres unmarked) [Example 259, N-(1-(5-(2-chloro-4-(pyrimidin-5-yl)benzyl)octahydropyrrolo[3,4-c]pyrrole-2-carbonyl)-1H-pyrazol-4-yl)-N-methylacetamide], for which the inhibition at 1 µM on FAAH and on MAGL was at least 75% throughout.
Turning to `CC(=O)N(C)c1cnn(C(=O)N2CC3CN(Cc4ccc(-c5cccnn5)cc4Cl)CC3C2)c1` (centres unmarked) [Example 260, N-(1-(5-(2-chloro-4-(pyridazin-3-yl)benzyl)octahydropyrrolo[3,4-c]pyrrole-2-carbonyl)-1H-pyrazol-4-yl)-N-methylacetamide], the inhibition at 1 µM at FAAH and on MAGL was at least 75% in each case.
With `CC(=O)N(C)c1cnn(C(=O)N2CC3CN(Cc4ccc(-c5ncccn5)cc4Cl)CC3C2)c1` (centres unmarked) [Example 261, N-(1-(5-(2-chloro-4-(pyrimidin-2-yl)benzyl)octahydropyrrolo[3,4-c]pyrrole-2-carbonyl)-1H-pyrazol-4-yl)-N-methylacetamide], the inhibition at 1 µM at FAAH and on MAGL was at least 75% in each case.
